Measured values published in patent US20070249011A1, “Method for Screening Fungus-Specific Antimicrobial Agent and Kit Therefor” (priority 2004, published 2007).

What was measured:
Type in all cases: cell-based, Saccharomyces cerevisiae
[1] = system: hog1 mutant strain introducing pYES2-HIK1; assay: Reagent sensitivity by plate culture, hog1 mutant strain introducing pYES2-HIK1; conditions: 25 ppm fludioxonil, 25 ppm iprodione, 50 ppm chloroneb; SG plates, 30° C., 60 hours (FIG. 7A)
Description: (§1) A suspension of a control yeast cell introducing pYES2-HIK1 therein (uppermost rows), a suspension of a hog1 mutant strain cell introducing pYES2-HIK1 therein (second rows), a suspension of an ssk1 mutant strain cell introducing pYES2-HIK1 therein (third rows), a suspension of a ste11 mutant strain cell introducing pYES2-HIK1 therein (fourth rows), a suspension of a control yeast cell introducing pYES2 therein (fifth rows), a suspension of a hog1 mutant strain cell introducing pYES2-HIK1 therein (sixth rows), a suspension of an ssk1 mutant strain cell introducing pYES2-HIK1 therein (seventh rows), and a suspension of a ste11 mutant strain cell introducing pYES2-HIK1 therein (lowermost rows) were added (5 μl each) dropwise at 9 mm spacings (from the left, 10^7, 10^6, 10^5, and 10^4/ml) in order from the uppermost rows of plates of 90 mm in diameter containing a variety of reagents, followed by culture at 30° C. for 60 hours (or 96 hours for NaCl). […] A suspension of a hog1 mutant strain cell introducing pCLΔ-HOG1 and pYES2-HIK1 therein (uppermost rows), a suspension of a hog1 mutant strain cell introducing pCLΔ and pYES2-HIK1 therein (second rows), a suspension of an ssk1 mutant strain cell introducing pCLΔ-SSK1 and pYES2-HIK1 therein (third rows), and a suspension of an ssk1 mutant strain cell introducing pCLΔ and pYES2-HIK1 therein (lowermost rows) were added (5 μl each) dropwise at 9 mm spacings (from the left, 10 ^7, 10^6, 10^5, and 10^4/ ml) in order from the uppermost rows of plates of 90 mm in diameter containing a variety of reagents, followed by culture at 30° C. for 60 hours (or 96 hours for NaCl). The reagents were added to each SG medium so that 25 ppm fludioxonil, 25 ppm iprodione, 50 ppm chloroneb, and 0.5 M NaCl were contained in order from the second leftmost plate; and
(§2) Reagent sensitivity was analyzed by plate culture and liquid culture. In the plate culture, strains were precultured overnight in 5 ml of SD/-Ura and then collected, followed by washing with 10 ml of SG/-Ura. […]

[2] = system: pYES2 transformant; assay: Reagent sensitivity by plate culture, vector-only control yeast
[3] = system: ATCC201388 [pYES2]; assay: Reagent sensitivity by liquid culture (doubling time), vector-only control yeast; conditions: 25 ppm reagent, liquid culture in SG/-Ura (GAL1 expression-inducing conditions), 27° C., 160 rpm, average ± standard deviation
[4] = system: pYES2-HIK1 transformant; assay: Reagent sensitivity by plate culture, HIK1-expressing yeast; conditions: for concentration at which the effect was saturated / growth inhibition in the presence of the reagent: SG plates; for concentration at which the effect was saturated: GAL1 expression-inducing conditions (FIG. 5B); for growth inhibition in the presence of the reagent: GAL1 expression-inducing conditions, 30° C., 60 hours, 5-100 ppm (FIG. 5B)
[5] = system: strain introducing pYES2-hik1-D1153E; assay: Reagent sensitivity by plate culture, yeast expressing Hik1-D1153E (nonfunctional response regulator domain); conditions: 25 ppm fludioxonil, 25 ppm iprodione, 50 ppm chloroneb; SG plates, 30° C., 72 hours (FIG. 6B)
Method: (§3) The reagents were added to each SG medium so that 25 ppm fludioxonil, 25 ppm iprodione, 50 ppm chloroneb, and 0.5 M NaCl were contained in order from the second leftmost plate;
(§4) Reagent sensitivity was analyzed by plate culture and liquid culture. In the plate culture, strains were precultured overnight in 5 ml of SD/-Ura and then collected, followed by washing with 10 ml of SG/-Ura. The resulting strains were cultured for 8 hours to 10 hours in 10 ml of SG/-Ura, followed by OD600 measurement. They were diluted to 10^7 cells/ml, 10^6 cells/ml, 10^5 cells/ml, and 10^4 cells/ml, and 5 μl each thereof was added dropwise onto SG/-Ura plates supplemented with a variety of reagents, and cultured for 60 hours to 240 hours. In the liquid culture, strains were precultured overnight in 5 ml of SD/-Ura and then collected, followed by washing with 10 ml of SG/-Ura. The resulting strains were cultured for 8 hours to 10 hours in 10 ml of SG/-Ura, followed by OD600 measurement. They were added at OD600=0.01 to 300-ml Erlenmeyer flasks accommodating 50 ml of SG/-Ura containing a variety of reagents. After shaking by spinning at 160 rpm and 27° C., sampling was performed after 12, 15, 18, 21, 24, 33, 36, and 39 hours, followed by OD600 measurement. A growth curve was created to calculate a doubling time.
(§5) (2) Mutagenized HIK1 was prepared with Mutan-Express Km kit (TAKARA SHUZO) using synthetic DNAs for mutagenesis (HK-H736V: 5′-[…]-3′ (SEQ ID NO: 2) and HK-D1153E: 5′-[…]-3′ (SEQ ID NO: 3)). Each mutagenized HIK1 was cloned into the BamHI site of pYES2 to prepare pYES2-hik1-H736V and […]. […]

[6] = system: ATCC201388 [pYES2-HIK1]; assay: Reagent sensitivity by liquid culture (doubling time), HIK1-expressing yeast; conditions: 25 ppm reagent, liquid culture in SG/-Ura (GAL1 expression-inducing conditions), 27° C., 160 rpm, average ± standard deviation
[7] = system: ste11 mutant strain introducing pYES2-HIK1; assay: Reagent sensitivity by plate culture, ste11 mutant strain introducing pYES2-HIK1; conditions: 25 ppm fludioxonil, 25 ppm iprodione, 50 ppm chloroneb; SG plates, 30° C., 60 hours (FIG. 7A)
Description: as §1, §2

[8] = system: ssk1 mutant strain introducing pYES2-HIK1; assay: Reagent sensitivity by plate culture, ssk1 mutant strain introducing pYES2-HIK1; conditions: 25 ppm fludioxonil, 25 ppm iprodione, 50 ppm chloroneb; SG plates, 30° C., 60 hours (FIG. 7A)
Description: as §1, §2

[9] = system: strain introducing pYES2-hik1-H736V; assay: Reagent sensitivity by plate culture, yeast expressing Hik1-H736V (nonfunctional histidine kinase domain); conditions: 25 ppm fludioxonil, 25 ppm iprodione, 50 ppm chloroneb; SG plates, 30° C., 72 hours (FIG. 6B)
Method: as §3, §4, §5

[10] = SG plates, GAL1 expression-inducing conditions, 30° C., 60 hours, 5-100 ppm (FIG. 5B)
[11] = all the strains (control, hog1, ssk1, ste11 mutant) introducing pYES2, 25 ppm fludioxonil, 25 ppm iprodione, 50 ppm chloroneb (FIG. 7A)

Compound | sensitivity to the reagent [1] | sensitivity to the reagent [2, 10] | sensitivity to the reagent [2, 11] | doubling time [3] | doubling time ([3]; listed as chloroneb) | concentration at which the effect was saturated [4] | growth inhibition in the presence of the reagent [4] | sensitivity to the reagent [5] | doubling time [6] | doubling time ([6]; listed as chloroneb) | sensitivity to the reagent [7] | sensitivity to the reagent [8] | sensitivity to the reagent [9] | doubling time ([3]; listed as fludioxonil) | doubling time ([6]; listed as fludioxonil) | doubling time ([3]; listed as iprodione) | doubling time ([6]; listed as iprodione) | difference in sensitivity between the pYES2-HIK1 transformant and the pYES2 transformant ([4]; expression-inducing conditions, 0.25 ppm, cultured for 240 hours (FIG. 5B))
COc1cc(Cl)c(OC)cc1Cl [Chloroneb, chloroneb] | did not exhibit sensitivity | no sensitivity | no sensitivity | 2.17 ± 0.08 h | around 2.2 hours | 50 ppm | exhibited growth inhibition | hardly exhibited sensitivity | 2.90 ± 0.11 h | 2.90 h | exhibited sensitivity | did not exhibit sensitivity | hardly exhibited sensitivity |  |  |  |  | 
N#Cc1c[nH]cc1-c1cccc2c1OC(F)(F)O2 [Fludioxonil, fludioxonil] | did not exhibit sensitivity | no sensitivity | no sensitivity | 2.25 ± 0.06 h |  | 5 ppm | exhibited growth inhibition | hardly exhibited sensitivity | 4.25 ± 0.20 h |  | exhibited sensitivity | did not exhibit sensitivity | hardly exhibited sensitivity | around 2.2 hours | 4.25 h |  |  | 
CC(C)NC(=O)N1CC(=O)N(c2cc(Cl)cc(Cl)c2)C1=O [Iprodione, iprodione] | did not exhibit sensitivity | no sensitivity | no sensitivity | 2.12 ± 0.06 h |  | 25 ppm | exhibited growth inhibition | hardly exhibited sensitivity | 3.12 ± 0.10 h |  | exhibited sensitivity | did not exhibit sensitivity | hardly exhibited sensitivity |  |  | around 2.2 hours | 3.12 h | 
C[C@@H]1C[C@@H]([C@H](O)CC2CC(=O)NC(=O)C2)C(=O)[C@@H](C)C1 [cycloheximide] |  |  |  |  |  |  |  |  |  |  |  |  |  |  |  |  |  | No difference in sensitivity
